Values joined by “and” are separate entries in the source; they are usually repeats but may differ in a detail not shown here. Equal entries are not always repeated. Where two headings read alike, the source gives them in different places.
How the values were obtained:
σ-1 receptors = target: T1, σ-1 receptors (Oryctolagus cuniculus, UniProt G1SD54); assay: [3H](+)-pentazocine receptor binding and competitive binding on irido-ciliary body membranes; set-up: species or system rabbit (New Zealand albino)
T1 construct: cell membranes obtained from the irido-ciliary body complex; from tissue; host or cells: rabbit irido-ciliary body, P2 membrane fraction
T1 sequence (G1SD54 1-223): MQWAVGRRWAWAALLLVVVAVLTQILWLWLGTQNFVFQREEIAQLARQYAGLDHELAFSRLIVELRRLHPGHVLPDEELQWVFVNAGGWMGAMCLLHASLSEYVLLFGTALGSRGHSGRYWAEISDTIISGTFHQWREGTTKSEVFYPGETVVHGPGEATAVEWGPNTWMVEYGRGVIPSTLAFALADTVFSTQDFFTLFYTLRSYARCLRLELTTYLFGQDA
Text: In order to identify the presence of a receptor sites in the eye the technique of “receptor binding” has been exploited. The latter has been carried out on cell membranes obtained from the irido-ciliary body complex. The irido-ciliary body complex had been explanted, after sacrifice, from male albino rabbits of the New Zealand strain. The tissue was homogenised in buffer and a fraction rich in cell membrane proteins was isolated, obtained by centrifugation. […] Aliquots of the said fraction of the homogenate containing 300 μg of total proteins were incubated with scalar amounts of [^3H](+)-pentazocine (which is used, for experimental purposes only, as a a ligand). The reaction was carried out at 37° C. for 150 minutes and then, after filtering, the radioactivity left on the filters was measured by liquid scintillation.

intraocular pressure [1] = assay: Intraocular pressure in New Zealand albino rabbits after instillation of a σ ligand; type: in vivo, rabbit (New Zealand albino); settings: 1% preparation, 50 μl in right conjunctival fornix; 60 minutes after instillation; p<0.01
Description: A 1% preparation of NANM was administered (50 μl) in the conjunctival fornix of the right eye of male albino rabbits of the New Zealand strain, after measuring the (baseline) intraocular pressure.

[2] = test system: intraocular pressure of rabbits showing normal baseline intraocular pressure; assay: Intraocular pressure in rabbits with normal intraocular pressure after topical instillation; type: in vivo, rabbit (Vienna Blue, pigmented)
[3] = test system: intraocular pressure of rabbits with ocular hypertension; assay: Intraocular pressure in rabbits with ocular hypertension induced by α-chymotrypsin; type: in vivo, rabbit (Vienna Blue, pigmented)
[4] = test system: cornea (corneal thickness)
intraocular pressure [5] = settings: general statement on the literature; cited from earlier work
intraocular pressure [6] = settings: cited from earlier work
[7] = 50 μl eye-drops, 0.050% flunarizine, equimolar comparators, 0.5% timolol

C=CCN1CC[C@@]2(C)c3cc(O)ccc3C[C@@H]1[C@@H]2C [NANM, (+)-N-allil-nor-meth-azocine]
Classes of σ receptor sites bound (Hill coefficient analysis) (σ-1 receptors; competitive binding): interacts with one only class
Displacement of [3H](+)-pentazocine in competitive binding (σ-1 receptors; constant amount of radioligand, scalar amounts of competitor): shift the radioactive ligands from the receptor sites
Intraocular pressure versus vehicle (intraocular pressure [1]): significantly reduced

COc1ccc(CCN(C)CCCC(C#N)(c2ccc(OC)c(OC)c2)C(C)C)cc1OC (centres unmarked) [verapamil]
Effect on intraocular pressure in rabbits with normal pressure, in words [2, 7]: neither the verapamil formulation nor the diltiazem formulation, both using the same vehicle as MEG 01, did produce any intraocular pressure decrease
Intraocular pressure (mmHg) at the time (min): 30, average ± S.D. ([2]; Table 1, average ± S.D. of 4 rabbits, 30 min after instillation, 50 μl eye-drops: 0.050% flunarizine, 0.056% verapamil, 0.051% diltiazem, 0.043% nifedipine): 15 ± 1.3 mmHg
Intraocular pressure (mmHg) at the time (min): 60, average ± S.D. ([2]; Table 1, average ± S.D. of 4 rabbits, 60 min after instillation, 50 μl eye-drops: 0.050% flunarizine, 0.056% verapamil, 0.051% diltiazem, 0.043% nifedipine): 14.7 ± 0.5 mmHg
Intraocular pressure (mmHg) at the time (min): 90, average ± S.D. ([2]; Table 1, average ± S.D. of 4 rabbits, 90 min after instillation, 50 μl eye-drops: 0.050% flunarizine, 0.056% verapamil, 0.051% diltiazem, 0.043% nifedipine): 14 ± 1.0 mmHg
Intraocular pressure (mmHg) at the time (min): 120, average ± S.D. ([2]; Table 1, average ± S.D. of 4 rabbits, 120 min after instillation, 50 μl eye-drops: 0.050% flunarizine, 0.056% verapamil, 0.051% diltiazem, 0.043% nifedipine): 15.7 ± 0.5 mmHg
Intraocular pressure (mmHg) at the time (min): 180, average ± S.D. ([2]; Table 1, average ± S.D. of 4 rabbits, 180 min after instillation, 50 μl eye-drops: 0.050% flunarizine, 0.056% verapamil, 0.051% diltiazem, 0.043% nifedipine): 16.2 ± 0.5 mmHg
Intraocular pressure (mmHg) at the time (min): 240, average ± S.D. ([2]; Table 1, average ± S.D. of 4 rabbits, 240 min after instillation, 50 μl eye-drops: 0.050% flunarizine, 0.056% verapamil, 0.051% diltiazem, 0.043% nifedipine): 16.5 ± 1.0 mmHg
Intraocular pressure (mmHg) at the time (min): 0, average ± S.D. ([2]; Table 1, average ± S.D. of 4 rabbits, time 0 = 15 min before instillation (baseline), 50 μl eye-drops: 0.050% flunarizine, 0.056% verapamil, 0.051% diltiazem, 0.043% nifedipine): 16 ± 0.8 mmHg
Intraocular pressure (mmHg) at the time (min): 30 ([2]; Table 1, individual rabbit, right eye, 30 min after instillation, 50 μl eye-drops: 0.050% flunarizine, 0.056% verapamil, 0.051% diltiazem, 0.043% nifedipine): 16 mmHg and 14 mmHg and 17 mmHg and 15 mmHg
Intraocular pressure (mmHg) at the time (min): 60 ([2]; Table 1, individual rabbit, right eye, 60 min after instillation, 50 μl eye-drops: 0.050% flunarizine, 0.056% verapamil, 0.051% diltiazem, 0.043% nifedipine): 15 mmHg (3×) and 14 mmHg
Intraocular pressure (mmHg) at the time (min): 90 ([2]; Table 1, individual rabbit, right eye, 90 min after instillation, 50 μl eye-drops: 0.050% flunarizine, 0.056% verapamil, 0.051% diltiazem, 0.043% nifedipine): 15 mmHg (3×) and 13 mmHg
Intraocular pressure (mmHg) at the time (min): 120 ([2]; Table 1, individual rabbit, right eye, 120 min after instillation, 50 μl eye-drops: 0.050% flunarizine, 0.056% verapamil, 0.051% diltiazem, 0.043% nifedipine): 16 mmHg (3×) and 13 mmHg
Intraocular pressure (mmHg) at the time (min): 180 ([2]; Table 1, individual rabbit, right eye, 180 min after instillation, 50 μl eye-drops: 0.050% flunarizine, 0.056% verapamil, 0.051% diltiazem, 0.043% nifedipine): 16 mmHg (3×) and 17 mmHg
Intraocular pressure (mmHg) at the time (min): 240 ([2]; Table 1, individual rabbit, right eye, 240 min after instillation, 50 μl eye-drops: 0.050% flunarizine, 0.056% verapamil, 0.051% diltiazem, 0.043% nifedipine): 17 mmHg (3×) and 15 mmHg
Intraocular pressure (mmHg) at the time (min): 0 ([2]; Table 1, individual rabbit, right eye, time 0 = 15 min before instillation (baseline), 50 μl eye-drops: 0.050% flunarizine, 0.056% verapamil, 0.051% diltiazem, 0.043% nifedipine): 17 mmHg and 15 mmHg and 16 mmHg (2×)
Effect on intraocular pressure in rabbits with ocular hypertension, in words [3, 7]: do not show any significant reduction
Intraocular pressure (mmHg) at the time (min): 30, average ± S.D. ([3]; Table 3, hypertensive rabbits, average ± S.D. of 4 rabbits, 30 min after instillation, 50 μl eye-drops: 0.050% flunarizine, 0.056% verapamil, 0.051% diltiazem, 0.043% nifedipine): 48.7 ± 6.5 mmHg
Intraocular pressure (mmHg) at the time (min): 60, average ± S.D. ([3]; Table 3, hypertensive rabbits, average ± S.D. of 4 rabbits, 60 min after instillation, 50 μl eye-drops: 0.050% flunarizine, 0.056% verapamil, 0.051% diltiazem, 0.043% nifedipine): 50.0 ± 5.47 mmHg
Intraocular pressure (mmHg) at the time (min): 90, average ± S.D. ([3]; Table 3, hypertensive rabbits, average ± S.D. of 4 rabbits, 90 min after instillation, 50 μl eye-drops: 0.050% flunarizine, 0.056% verapamil, 0.051% diltiazem, 0.043% nifedipine): 48.0 ± 5.94 mmHg
Intraocular pressure (mmHg) at the time (min): 120, average ± S.D. ([3]; Table 3, hypertensive rabbits, average ± S.D. of 4 rabbits, 120 min after instillation, 50 μl eye-drops: 0.050% flunarizine, 0.056% verapamil, 0.051% diltiazem, 0.043% nifedipine): 48.5 ± 5.97 mmHg
Intraocular pressure (mmHg) at the time (min): 180, average ± S.D. ([3]; Table 3, hypertensive rabbits, average ± S.D. of 4 rabbits, 180 min after instillation, 50 μl eye-drops: 0.050% flunarizine, 0.056% verapamil, 0.051% diltiazem, 0.043% nifedipine): 48.75 ± 6.39 mmHg
Intraocular pressure (mmHg) at the time (min): 240, average ± S.D. ([3]; Table 3, hypertensive rabbits, average ± S.D. of 4 rabbits, 240 min after instillation, 50 μl eye-drops: 0.050% flunarizine, 0.056% verapamil, 0.051% diltiazem, 0.043% nifedipine): 49.5 ± 5.44 mmHg
Intraocular pressure (mmHg) at the time (min): 0, average ± S.D. ([3]; Table 3, hypertensive rabbits, average ± S.D. of 4 rabbits, time 0 = 15 min before instillation (baseline), 50 μl eye-drops: 0.050% flunarizine, 0.056% verapamil, 0.051% diltiazem, 0.043% nifedipine): 49.0 ± 5.94 mmHg
Intraocular pressure (mmHg) at the time (min): 30 ([3]; Table 3, hypertensive rabbits, individual rabbit, right eye, 30 min after instillation, 50 μl eye-drops: 0.050% flunarizine, 0.056% verapamil, 0.051% diltiazem, 0.043% nifedipine): 55 mmHg and 48 mmHg and 40 mmHg and 52 mmHg
Intraocular pressure (mmHg) at the time (min): 60 ([3]; Table 3, hypertensive rabbits, individual rabbit, right eye, 60 min after instillation, 50 μl eye-drops: 0.050% flunarizine, 0.056% verapamil, 0.051% diltiazem, 0.043% nifedipine): 56 mmHg and 49 mmHg and 43 mmHg and 52 mmHg
Intraocular pressure (mmHg) at the time (min): 90 ([3]; Table 3, hypertensive rabbits, individual rabbit, right eye, 90 min after instillation, 50 μl eye-drops: 0.050% flunarizine, 0.056% verapamil, 0.051% diltiazem, 0.043% nifedipine): 55 mmHg and 46 mmHg and 41 mmHg and 50 mmHg
Intraocular pressure (mmHg) at the time (min): 120 ([3]; Table 3, hypertensive rabbits, individual rabbit, right eye, 120 min after instillation, 50 μl eye-drops: 0.050% flunarizine, 0.056% verapamil, 0.051% diltiazem, 0.043% nifedipine): 55 mmHg and 47 mmHg and 41 mmHg and 51 mmHg
Intraocular pressure (mmHg) at the time (min): 180 ([3]; Table 3, hypertensive rabbits, individual rabbit, right eye, 180 min after instillation, 50 μl eye-drops: 0.050% flunarizine, 0.056% verapamil, 0.051% diltiazem, 0.043% nifedipine): 57 mmHg and 46 mmHg and 42 mmHg and 50 mmHg
Intraocular pressure (mmHg) at the time (min): 240 ([3]; Table 3, hypertensive rabbits, individual rabbit, right eye, 240 min after instillation, 50 μl eye-drops: 0.050% flunarizine, 0.056% verapamil, 0.051% diltiazem, 0.043% nifedipine): 56 mmHg and 48 mmHg and 43 mmHg and 51 mmHg
Intraocular pressure (mmHg) at the time (min): 0 ([3]; Table 3, hypertensive rabbits, individual rabbit, right eye, time 0 = 15 min before instillation (baseline), 50 μl eye-drops: 0.050% flunarizine, 0.056% verapamil, 0.051% diltiazem, 0.043% nifedipine): 56 mmHg and 47 mmHg and 42 mmHg and 51 mmHg
Corneal thickness (mm): 1 hour ([4]; individual rabbit, treated right eye (RE), 1 hour after single 50 μl instillation, 0.050% flunarizine, 0.056% verapamil, 0.051% diltiazem, 0.043% nifedipine): 0.376 mm and 0.398 mm and 0.387 mm and 0.401 mm
Corneal thickness (mm): 2 hours ([4]; individual rabbit, treated right eye (RE), 2 hours after single 50 μl instillation, 0.050% flunarizine, 0.056% verapamil, 0.051% diltiazem, 0.043% nifedipine): 0.385 mm and 0.406 mm and 0.400 mm and 0.494 mm
Corneal thickness (mm): 3 hours ([4]; individual rabbit, treated right eye (RE), 3 hours after single 50 μl instillation, 0.050% flunarizine, 0.056% verapamil, 0.051% diltiazem, 0.043% nifedipine): 0.383 mm and 0.402 mm (2×) and 0.410 mm
Corneal thickness (mm): Baseline ([4]; individual rabbit, treated right eye (RE), before single 50 μl instillation, 0.050% flunarizine, 0.056% verapamil, 0.051% diltiazem, 0.043% nifedipine): 0.356 mm and 0.384 mm and 0.372 mm and 0.392 mm
Increase in corneal thickness ([4]; ophthalmic solution containing 0.056% verapamil): 15-20 μm/hour
Corneal swelling / alteration of corneal thickness, in words ([4]; single 50 μl instillation, observed up to 3 hours): caused comeal swelling
Intraocular pressure after administration to man (intraocular pressure [5]): reduction of the intraocular pressure
Intraocular pressure after oral administration to rabbits (intraocular pressure [6]; Beatty et al. 1984): did not evidence any effect
Intraocular pressure after topical administration to rabbits (intraocular pressure [6]; Beatty et al. 1984): increase in the intraocular pressure
Intraocular pressure after systemic administration to rabbits (intraocular pressure [6]; Payene et al. 1990): reduction in the intraocular pressure
Intraocular pressure after topical administration to rabbits (intraocular pressure [6]; Payene et al. 1990): did not detect any significant effect

Reference: patent US6380198B1 (Laboratoire Medidom S.A., priority 1997, dated 2002)
